What was measured:
[1] = biological target: Multidrug resistance associated protein (Homo sapiens) (UniProt Q96QA9); assay: TP_TRANSPORTER: Western blot, HepG2 cells; assay type: functional, cell-based
[2] = biological target: Multidrug resistance associated protein (Homo sapiens) (UniProt Q96QA9); assay: TP_TRANSPORTER: RT-PCR in HepG2 cells; assay type: functional, cell-based

Multidrug resistance associated protein (Homo sapiens), sequence (Q96QA9 as listed by the source): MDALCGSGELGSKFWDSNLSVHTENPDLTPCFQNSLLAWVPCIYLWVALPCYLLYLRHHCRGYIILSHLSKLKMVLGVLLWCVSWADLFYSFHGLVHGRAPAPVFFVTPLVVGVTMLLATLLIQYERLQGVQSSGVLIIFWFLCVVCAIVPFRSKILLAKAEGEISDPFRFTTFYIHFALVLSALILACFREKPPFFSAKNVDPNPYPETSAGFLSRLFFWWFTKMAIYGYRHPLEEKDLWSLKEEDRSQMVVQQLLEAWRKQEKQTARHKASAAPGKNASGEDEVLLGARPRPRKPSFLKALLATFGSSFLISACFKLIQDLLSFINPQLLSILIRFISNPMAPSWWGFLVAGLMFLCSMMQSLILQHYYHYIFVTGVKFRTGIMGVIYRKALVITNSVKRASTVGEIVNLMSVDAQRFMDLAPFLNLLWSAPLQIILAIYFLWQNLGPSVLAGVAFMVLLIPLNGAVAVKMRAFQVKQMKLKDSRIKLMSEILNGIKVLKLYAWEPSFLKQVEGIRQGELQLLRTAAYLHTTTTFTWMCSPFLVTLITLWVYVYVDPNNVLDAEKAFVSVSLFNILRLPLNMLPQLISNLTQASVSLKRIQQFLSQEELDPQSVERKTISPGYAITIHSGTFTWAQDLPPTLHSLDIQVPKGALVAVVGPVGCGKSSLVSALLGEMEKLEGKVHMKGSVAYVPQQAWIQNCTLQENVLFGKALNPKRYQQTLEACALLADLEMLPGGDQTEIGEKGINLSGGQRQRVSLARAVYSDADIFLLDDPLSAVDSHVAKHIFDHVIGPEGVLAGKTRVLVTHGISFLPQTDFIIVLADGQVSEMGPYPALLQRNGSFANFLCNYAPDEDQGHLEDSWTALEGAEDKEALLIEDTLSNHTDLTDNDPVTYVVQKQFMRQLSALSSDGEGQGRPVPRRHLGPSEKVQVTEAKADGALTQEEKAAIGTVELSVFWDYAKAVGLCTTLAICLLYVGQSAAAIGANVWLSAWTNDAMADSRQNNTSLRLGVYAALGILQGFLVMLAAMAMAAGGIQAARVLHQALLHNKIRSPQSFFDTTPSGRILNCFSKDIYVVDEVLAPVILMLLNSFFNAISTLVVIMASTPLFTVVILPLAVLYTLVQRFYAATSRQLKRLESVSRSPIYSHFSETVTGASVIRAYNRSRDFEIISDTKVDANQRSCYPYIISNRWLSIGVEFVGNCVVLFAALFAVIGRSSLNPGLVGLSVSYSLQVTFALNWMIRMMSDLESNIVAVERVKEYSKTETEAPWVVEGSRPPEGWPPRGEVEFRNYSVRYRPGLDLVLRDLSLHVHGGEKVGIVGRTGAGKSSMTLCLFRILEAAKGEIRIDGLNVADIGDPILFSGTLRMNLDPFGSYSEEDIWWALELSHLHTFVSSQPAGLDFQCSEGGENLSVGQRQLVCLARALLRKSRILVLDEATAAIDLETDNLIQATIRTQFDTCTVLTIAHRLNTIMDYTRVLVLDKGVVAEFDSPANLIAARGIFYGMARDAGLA

Activity [1] | Activity [2] | SMILES
inducer [] | inducer [] | COc1ccc2[nH]c([S+]([O-])Cc3ncc(C)c(OC)c3C)nc2c1 (centres undefined)
inducer [] | inducer [] | O=c1cc(-c2ccccc2)oc2ccc3ccccc3c12
